Measurements from patent publication US8138158B2, “Compositions and methods for therapy for diseases characterized by defective chloride transport” (Children's Hospital & Research Center at Oakland, priority 1997, dated 2012).
“Also recorded” adds a separate entry of the source.

What was measured:
ΔF508 CFTR = biological target: T1, ΔF508 CFTR (Mus musculus, UniProt P26361, DEL508-508); assay: Rectal potential difference (RPD) in mice homozygous for ΔF508 CFTR; format: in vivo
T1 construct: from tissue; host or cells: rectal mucosa of living ΔF508 CF mice (C57Bl6/J), TMAO-treated or water-injected
T1 sequence (P26361 with tags, fused parts or gaps DEL508-508): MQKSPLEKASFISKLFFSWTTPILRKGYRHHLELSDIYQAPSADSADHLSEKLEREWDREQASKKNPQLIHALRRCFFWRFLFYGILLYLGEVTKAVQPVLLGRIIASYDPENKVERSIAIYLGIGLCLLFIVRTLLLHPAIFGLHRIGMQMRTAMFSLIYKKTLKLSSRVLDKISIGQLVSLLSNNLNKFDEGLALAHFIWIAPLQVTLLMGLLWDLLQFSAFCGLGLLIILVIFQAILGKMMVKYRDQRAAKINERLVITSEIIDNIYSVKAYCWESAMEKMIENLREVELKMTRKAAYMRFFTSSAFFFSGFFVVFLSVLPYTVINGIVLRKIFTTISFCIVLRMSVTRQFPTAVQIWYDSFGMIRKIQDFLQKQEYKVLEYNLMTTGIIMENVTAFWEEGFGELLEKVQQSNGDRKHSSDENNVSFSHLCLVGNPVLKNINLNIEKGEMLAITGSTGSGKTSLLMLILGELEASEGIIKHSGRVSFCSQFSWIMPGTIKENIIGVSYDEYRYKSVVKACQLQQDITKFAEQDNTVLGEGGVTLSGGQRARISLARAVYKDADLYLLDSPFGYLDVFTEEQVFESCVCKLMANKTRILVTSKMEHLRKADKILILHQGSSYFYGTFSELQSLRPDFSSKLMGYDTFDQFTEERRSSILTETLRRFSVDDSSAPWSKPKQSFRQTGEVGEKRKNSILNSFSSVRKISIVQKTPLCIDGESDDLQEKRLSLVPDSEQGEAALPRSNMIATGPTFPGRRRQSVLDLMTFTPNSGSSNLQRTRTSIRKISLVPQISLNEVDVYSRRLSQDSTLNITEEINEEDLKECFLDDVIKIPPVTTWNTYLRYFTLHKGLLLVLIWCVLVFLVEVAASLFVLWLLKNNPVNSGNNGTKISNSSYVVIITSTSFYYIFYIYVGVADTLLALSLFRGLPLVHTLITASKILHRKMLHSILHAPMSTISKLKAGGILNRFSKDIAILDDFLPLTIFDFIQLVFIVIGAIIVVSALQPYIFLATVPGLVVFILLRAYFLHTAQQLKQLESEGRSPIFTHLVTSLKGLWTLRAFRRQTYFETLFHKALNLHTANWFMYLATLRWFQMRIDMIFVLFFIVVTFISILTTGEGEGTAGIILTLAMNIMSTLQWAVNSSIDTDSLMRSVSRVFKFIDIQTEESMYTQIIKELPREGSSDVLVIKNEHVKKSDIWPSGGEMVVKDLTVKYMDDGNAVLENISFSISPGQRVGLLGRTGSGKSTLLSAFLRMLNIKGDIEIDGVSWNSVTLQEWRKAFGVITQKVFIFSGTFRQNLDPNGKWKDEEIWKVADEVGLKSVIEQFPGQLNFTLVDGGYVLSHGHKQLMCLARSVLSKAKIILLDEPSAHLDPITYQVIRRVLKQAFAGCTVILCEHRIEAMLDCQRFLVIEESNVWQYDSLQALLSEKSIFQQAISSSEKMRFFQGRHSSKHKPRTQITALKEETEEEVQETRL
Excerpt: CF mice and rectal potential difference (RPD) measurements. Gene-targeted mice homozygous for the ΔF508 mutation (C57Bl6/J) received Golytely® (Braintree Laboratories, Inc.), a diarrhetic supplement, in the drinking water to increase their lifespan (Clarke, L. L., Gawenis, L. R., Franklin, C. L. & Harline, M. C. (1996) Lab. Anim. Sci. 46, 612-8). To correct the maturation defect of ΔF508 CFTR we used the chemical chaperone trimethylamine oxide (TMAO) (Brown, C. R., Hong-Brown, L. Q., Biwersi, J., Verkman, A. S. & Welch, W. J. (1996) Cell Stress Chaperones 1, 117-25). CF mice were injected with 4 mg/g TMAO from a 4 M stock solution every 8 hours for 24 hours, which is a regimen to partially correct the ΔF508 defect in CF mice (Fischer, H., Barbry, P., Illek, B., Sartori, C., Fukuda, N. & Matthay, M. A. (2001) Am. J. Physiol. 281, L52-L57). Controls were water-injected. The RPD assay was performed on mice that were anesthetized with 0.1 mg/g body weight ketamine and 0.01 mg/g body weight azepromazine. RPD was sensed with a 1 M NaCl agar bridge inserted ˜1 cm into the rectum vs. a subcutaneous needle filled with 1 M NaCl. Measurements were performed in Cl free solution containing 100 μm amiloride and 5 mM Ba(OH)2 to isolate the Cl-selective RPD.
In this Example, it was determined whether L-ascorbic acid affected the functional activation of ΔF508 CFTR in a CF-affected organism in vivo. Using gene-targeted mice homozygous for the ΔF508 mutation it was shown previously that the osmolyte trimethylamine oxide (TMAO) effectively supported ΔF508 CFTR trafficking in vivo (Fischer, H., Barbry, P., Illek, B., Sartori, C., Fukuda, N. & Matthay, M. A. (2001) Am. J. Physiol. 281, L52-L57). Accordingly, the effect of L-ascorbic acid was tested in homozygous ΔF508 CF mice treated with TMAO by using the RPD assay as a functional end point measure for mutant ΔF508-CFTR function. FIG. 24A illustrates that TMAO-treated CF mice manifested a detectable response to a maximal dose of L-ascorbic acid (1 mM) or its epimer D-isoascorbic acid (300 μM) and RPD hyperpolarized on average by −3.2±0.8 mV (n=4) and −3.6±1.8 mV (n=3), respectively (FIG. 24B).

Calu-3 monolayers = assay: Transepithelial short-circuit current (Isc) across unstimulated Calu-3 monolayers; format: cell-based, human; conditions: compound added to mucosal (or serosal) perfusion; L-ascorbic acid 100 μM; dehydroascorbic acid 10, 100 or 300 μM
Summary of the method: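 Unstimulated Calu-3 monolayers given compound on the mucosal side at increasing concentrations. Chloride current recorded with serosal-to-mucosal chloride gradient at 0 mV, 2 mV pulses. Forskolin (20 μM, serosal) used for comparison.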

[1] = system: nasal potential difference (NPD); assay: Nasal potential difference (NPD) measurements in healthy volunteers, Example 12; format: in vivo, human
Protocol: Nasal potential difference (NPD) measurements. Measurements of NPD were performed in healthy volunteers as described (Illek, B. & Fischer, H., Supra). The study protocol was approved by the Internal Review Board at Children's Hospital Oakland. Solutions and test drugs were perfused into one nostril at ˜5 ml/min at room temperature (23-25° C.). NaCl solution contained (in mM): 145 NaCl, 4 KCl, 1 CaCl2, 1 MgCl2, 10 Hepes, pH=7.4. In Cl free solutions all Cl salts were replaced by the respective gluconate salts. All solutions were sterile filtered before use. NPD was sensed with an Ag/AgCl/agar electrode placed in the perfusing tube with respect to an electrode placed on a slightly scratched skin part on the forearm (Alton, E. W. F. W., Currie, A. D., Logan-Sinclair, R., Warner, J. O., Hodson, M. E. & Geddes, D. M. (1990) Eur. Resp. J. 3, 922-926).
In vivo effects of ascorbic acid on Cl transport were evaluated using the nasal potential difference (NPD) assay for Cl channel function. The Cl-selective NPD was measured in amiloride-containing (100 μm) and chloride-free solutions. These experiments served as an important control to verify the significance of the transepithelial results obtained with ascorbic acid in Calu-3 cells. In close agreement with the transepithelial measurements, NPD was progressively hyperpolarized during the exposure of the nasal mucosa to L-ascorbic acid (by −6.7±0.4 mV, n=3) and the cAMP-stimulating agonist isoproterenol (by −5.5±0.5 mV, n=4) (FIG. 21C). A dose of 300 μm L-ascorbic acid hyperpolarized NPD to 72% of the NPD in presence of the cAMP agonist isoproterenol (10 μM).

RPD hyperpolarized on average by (ΔF508 CFTR; CF mice treated with 4 mg/g TMAO for 24 hours, L-ascorbic acid 1 mM, n=4): −3.2±0.8 mV
ΔRPD (ΔF508 CFTR; water-injected control CF mice, L-ascorbic acid or D-isoascorbic acid, n=9): −1.1±0.4 mV
SMILES: O=C1O[C@H](C(O)CO)C(O)=C1O (stereo partly drawn) [L-ascorbic acid, L-xyloascorbic acid]
transepithelial chloride currents in unstimulated tissue (Calu-3 monolayers): very effectively stimulated transepithelial chloride secretion; also recorded: very effectively stimulated transepithelial chloride currents
NPD hyperpolarized to % of the NPD in presence of isoproterenol ([1]; 300 μm L-ascorbic acid vs isoproterenol 10 μM): 72%
NPD hyperpolarized by ([1]; L-ascorbic acid, amiloride (100 μm), chloride-free, n=3): −6.7±0.4 mV
